Read-outs that look alike come from different tables or passages of the source.
Legend:
[1] = Acute toxicity assessed intravenously in mice (method of Miller and Tainter); conditions: mouse, in vivo; for LD50: read-out: Acute toxicity LD 50
[2] = tested on: S.H.R. rats (genetically hypertensive); test: Antihypertensive activity by oral administration to S.H.R. rats (genetically hypertensive); type: in vivo
Protocol: The arterial blood pressure was recorded on an APELAB-BP recorder 8002-and an electromechanical counter provided a direct reading of the heartbeat rate. The measurements were taken at 0 hour, 2 hours, 4 hours, 6 hours and 24 hours after administration of the compounds tested.
To illustrate the invention, the results obtained with some of the compounds of the invention are shown in Table II below in which the symbols AHY, ΔPA and ΔFC have the following meanings:
AHY=% of rats whose arterial blood pressure drops by a value greater than or equal to 20% of the initial value or is brought down to a value less than 150 mmHg,
ΔPA=% variation of the arterial blood pressure in all the animals tested with respect to the initial blood pressure,
ΔFC=% variation of the heart-beat rate of all the animals tested with respect to the initial rate.

[3] = iv, 200 mg/kg, i.v., read-out: Acute toxicity (mice), % at 200 mg/kg i.v. (printed "at 200 (0%)")
[4] = po, 1000 mg/kg, p.o., read-out: Acute toxicity (mice), % at 1000 (p.o.)
[5] = dose 50, 4 hours after administration
[6] = dose 50, 6 hours after administration
[7] = dose 50, 24 hours after administration

## c1cc(N2CCNCC2)c2nc[nH]c2c1 [Code No. 1, (piperazino-1)-4(7) benzimidazole, tribromhydrate]
[1]; iv
  LD50: 125 mg/kg

## CC(C)C(=O)N1CCN(c2cccc3[nH]cnc23)CC1 [Code No. 3]
[1]; [3]
  mortality: 0%

## O=C(c1cccs1)N1CCN(c2cccc3[nH]cnc23)CC1 [Code No. 7]
[1]; [3]
  mortality: 0%

## C=C(C)COC(=O)N1CCN(c2cccc3[nH]cnc23)CC1 [Code No. 17]
[1]; [3]
  mortality: 0%

## CSc1nnc(C(=O)N2CCN(c3cccc4[nH]cnc34)CC2)o1 [compound 12]
[1]; [4]
  mortality: 0%

## CCOC(=O)N1CCN(c2cccc3[nH]cnc23)CC1 [compound 13]
[1]; iv
  LD50: 160 mg/kg

## CC(C)COC(=O)N1CCN(c2cccc3[nH]cnc23)CC1 [compound 21]
[1]; iv
  LD50: 195 mg/kg

## c1ccc(SN2CCN(c3cccc4[nH]cnc34)CC2)cc1 [compound 24]
[1]; [4]
  mortality: 0%

## CCOC(=O)N1CCN(c2ncnc3nc[nH]c23)CC1 [compound 25]
[1]; [3]
  mortality: 0%

## CCOC(=O)N1CCN(c2cccc3[nH]c(C)nc23)CC1 [compound 26]
[1]; iv
  LD50: 200 mg/kg

## CCOC(=O)C1CCN(c2cccc3[nH]cnc23)CC1 [compound 30]
[1]; iv
  LD50: 185 mg/kg

## c1cc(N2CCNCC2)c2nn[nH]c2c1 [compound 39]
[1]; iv
  LD50: 96 mg/kg

## c1cc(N2CCNCC2)c2cc[nH]c2c1 [compound 41]
[1]; iv
  LD50: 35 mg/kg

## c1cc(N2CCNCC2)c2[nH]ccc2c1 [compound 42]
[1]; iv
  LD50: 70 mg/kg

## (benzyloxycarbonyl-4 piperazino-1)-4 indole [Code No. 40]
[2]; [5]
  AHY (% of rats whose arterial blood pressure drops by ≥20% of initial value or to <150 mmHg): 86%
  ΔFC (% variation of the heart-beat rate vs initial): -11%
  ΔPA (% variation of the arterial blood pressure vs initial): -23%
[2]; [6]
  AHY (% of rats whose arterial blood pressure drops by ≥20% of initial value or to <150 mmHg): 86%
  ΔFC (% variation of the heart-beat rate vs initial): -8%
  ΔPA (% variation of the arterial blood pressure vs initial): -23%
[2]; [7]
  AHY (% of rats whose arterial blood pressure drops by ≥20% of initial value or to <150 mmHg): 0%
  ΔFC (% variation of the heart-beat rate vs initial): -9%
  ΔPA (% variation of the arterial blood pressure vs initial): -2%

## (carbethoxy-4 piperazino-1)-4(7) benzimidazole, maleate [Code No. 13]
[2]; [6]
  AHY (% of rats whose arterial blood pressure drops by ≥20% of initial value or to <150 mmHg): 71%
  ΔFC (% variation of the heart-beat rate vs initial): 0%
  ΔPA (% variation of the arterial blood pressure vs initial): -19%
[2]; [7]
  AHY (% of rats whose arterial blood pressure drops by ≥20% of initial value or to <150 mmHg): 28%
  ΔFC (% variation of the heart-beat rate vs initial): -7%
  ΔPA (% variation of the arterial blood pressure vs initial): -9%

## (carbethoxy-4 piperazino-1)-6 purine [Code No. 25]
[2]; [5]
  AHY (% of rats whose arterial blood pressure drops by ≥20% of initial value or to <150 mmHg): 14%
  ΔFC (% variation of the heart-beat rate vs initial): -5%
  ΔPA (% variation of the arterial blood pressure vs initial): -8%
[2]; [6]
  AHY (% of rats whose arterial blood pressure drops by ≥20% of initial value or to <150 mmHg): 57%
  ΔFC (% variation of the heart-beat rate vs initial): +1%
  ΔPA (% variation of the arterial blood pressure vs initial): -14%
[2]; [7]
  AHY (% of rats whose arterial blood pressure drops by ≥20% of initial value or to <150 mmHg): 43%
  ΔFC (% variation of the heart-beat rate vs initial): -4%
  ΔPA (% variation of the arterial blood pressure vs initial): -9%

## (piperazino-4 (7) benzotriazole, dihydrochloride [Code No. 39]
[2]; [5]
  AHY (% of rats whose arterial blood pressure drops by ≥20% of initial value or to <150 mmHg): 33%
  ΔPA (% variation of the arterial blood pressure vs initial): -15%
[2]; [6]
  AHY (% of rats whose arterial blood pressure drops by ≥20% of initial value or to <150 mmHg): 67%
  ΔFC (% variation of the heart-beat rate vs initial): +3%
  ΔPA (% variation of the arterial blood pressure vs initial): -21%
[2]; [7]
  ΔFC (% variation of the heart-beat rate vs initial): 0%
